The values that follow come from ChEMBL document CHEMBL3507680, “University of Dundee, Gates Library screen for HepG2 cell viability”.

This data set can be described thus: Human HepG2 cell viability assay in 384 well format. The format is toxicity, cell-based. More on the design: dose 125 nL, time 70.5 hour; concentration not given beside the values. To be noted: HepG2 cells, read-out: Inhibition.
As for `O=C(CCc1ccccn1)NCC(O)c1ccc(Cl)cc1Cl` (centres undefined), the cytotoxicity at 70.5 h is -1.56%.

As for `O=C(CCCc1ccccn1)NCC(O)c1ccccc1Cl` (centres undefined), the cytotoxicity at 70.5 h turned out to be 3.77%. Consider `CSc1nc(C2CC2)nc(C)c1C(=O)NCc1ncc(C)o1`, for which the cytotoxicity at 70.5 h was -2.47%.

For `Cc1nc(CNC(=O)NC2CCN(c3ncccc3Cl)C2)no1` (centres undefined), the cytotoxicity at 70.5 h is -3.51%. For `O=C(NCc1cscn1)NC1CCN(c2ncccc2Cl)C1` (centres undefined), the cytotoxicity at 70.5 h was -2.49%.

Take `CC(C)c1ccc(S(=O)(=O)NC2(CC(N)=O)CCC2)cc1`: the cytotoxicity at 70.5 h worked out at 2.8%. Regarding `CC(C)n1ncc2c1NC(=O)C(C#N)C21CCCCC1` (centres undefined), the cytotoxicity at 70.5 h is -9.51%.

On to `CC(C)C(NC(=O)c1ccc(Cl)cc1Cl)C(=O)Nc1ccn(C)n1` (centres undefined), for which the cytotoxicity at 70.5 h amounted to 1.6%. For `COC(=O)CN(Cc1ccccc1C)C(=O)COCC1CC1`, the cytotoxicity at 70.5 h is -2.06%. Then `CN(C(=O)c1cccnc1OCC(F)F)c1ccc2c(c1)CCO2`, with -9.98%.

For `CCN(C)CC1CCN(C(=O)Nc2ccc(C)cc2)C1` (centres undefined), the cytotoxicity at 70.5 h was -3.05%. Then `Cc1ncc(CN(C)CC(O)c2cccc(C(F)(F)F)c2)s1` (centres undefined), with 17.1%. Under `CCC(CC)c1nnc(NC(=O)N2CCC(C(N)=O)CC2)s1` stands -0.155%; under `Cc1ccc2nc(NCCN3CCOCC3)n(C)c(=O)c2c1`, 0.444%; under `NC(=O)C1CCCN1Cc1ccccc1NC(=O)Cc1cccc(F)c1` (centres undefined), -0.431%.

Regarding `CCOc1ccnc(N2CCN(C(=O)CCc3ccsc3)CC2)n1`, the cytotoxicity at 70.5 h was -7.66%. As for `CC(C)CNC(=O)CCN1C(=O)CCc2cc(F)ccc21`, the cytotoxicity at 70.5 h was -4.13%. With `Cn1ncnc1NS(=O)(=O)c1ccc(F)cc1Cl`, the cytotoxicity at 70.5 h is -1.04%. Then `CCOc1ccnc(N2CCN(C(=O)CCc3ccncc3)CC2)n1`, with 0.226%; and `CC(C(=O)N1CCc2sccc2C1)N1CCC(S(N)(=O)=O)CC1` (centres undefined), with -4.51%.

Regarding `Cc1cccc(CNc2nnc(C(C)C)o2)c1`, the cytotoxicity at 70.5 h worked out at 0.308%. Then `Cc1ncc(CN(C)CC(O)c2ccc(Br)cc2)s1` (centres undefined), with -12%; and `COc1ccnc(N2CCCN(C(=O)CCc3cnn(C)c3)CC2)n1`, with -10.3%; and `CCOCc1nnc(NCc2cccnc2)o1`, with -7.36%.

As to `Cn1nccc1NCc1cc2cc(F)ccc2o1`, the cytotoxicity at 70.5 h stood at 23.2%. Take `CSC1(CNC(=O)c2cccc(-n3cccn3)c2)CCOCC1`: the cytotoxicity at 70.5 h was 1.71%. In the case of `Cc1cc(CN(C)C(=O)CN2CCCC2=O)no1`, the cytotoxicity at 70.5 h is -15.2%. On to `O=C(CCn1c(=O)oc2ccccc21)NCC(O)c1ccccc1` (centres undefined), for which the cytotoxicity at 70.5 h is -3.91%. As for `O=C(CCCNC(=O)NCC1CCCO1)Nc1ccc(Cl)cc1` (centres undefined), the cytotoxicity at 70.5 h was -8.55%. Under `CN(CCCc1cc(-c2ccc(F)cc2)n(C)n1)CC(=O)NC(N)=O` stands -8.03%; under `Cc1ncsc1CNC(=O)NCC1(c2ccc3c(c2)OCO3)CC1`, 19%; under `O=C(Nc1ccc(F)cc1)C1CSCN1` (centres undefined), -10.2%. Under `N#CCCN(CCN1CCOCC1)Cc1ccc(F)c(Br)c1` stands -3.12%; under `O=C(NCCn1cccc1)c1c(O)cc(F)cc1F`, -6.2%; under `CC(C)c1nncn1CCNC(=O)c1c(O)cc(F)cc1F`, -4.67%.

Turning to `CC(C)(C)OC(=O)N1CCN(S(C)(=O)=O)C2(CCCCC2)C1`, the cytotoxicity at 70.5 h is -1.8%. Then `O=C(NCC1(O)CCSC1)c1cccc(-n2cccn2)c1` (centres undefined), with -10.4%; and `CC(C)(NS(C)(=O)=O)c1nc(-c2ccncc2)no1`, with 18.6%. In the case of `COc1ccc(CN(CCC#N)CCN2CCOCC2)cc1OC`, the cytotoxicity at 70.5 h is -10.2%.

With `OC(CNC1CCSCC1)c1cccc(OCc2ccccc2)c1` (centres undefined), the cytotoxicity at 70.5 h is 23.4%. For `O=C(OCc1cc(=O)n2cc(Br)ccc2n1)c1ccc2c(c1)OCO2`, the cytotoxicity at 70.5 h was -5.88%. `Cc1ccc2cccc(S(=O)(=O)N(C)CC3CCN(C)CC3)c2n1`: the cytotoxicity at 70.5 h is -7.7%. Then `Cc1ccc2cccc(S(=O)(=O)N(C)CC3CCN(C)C3)c2n1` (centres undefined), with -0.784%; and `O=C(NCC1(O)CCC1)c1cccc(-n2cccn2)c1`, with -11.6%; and `CCC(O)CN(C)Cc1nnc2ccccn12` (centres undefined), with 9.61%. Then `O=C1CN(c2ccc(CNc3cncc(-n4cccn4)n3)cc2)CCN1`, with -0.149%; and `CC(C)(C)c1cnc(CN2CCC(NC(=O)NC3CCCCC3)CC2)o1`, with 1.07%. Then `CCCNC(=O)c1ccc(-c2ccco2)[nH]c1=O`, with -2.1%; and `CC(C)CCNC(=O)c1ccc(-c2ccco2)[nH]c1=O`, with -1.63%.

For the molecule `CCc1noc(CN(CC(=O)N2CCCCC2)c2cccc(C)c2)n1`, the cytotoxicity at 70.5 h was -3.01%. Under `Cc1nc(-c2ccco2)ccc1C(=O)N1CCc2nnc(N)cc2C1` stands -1.99%; under `CCc1nnsc1C(=O)NC1CCN(CCOc2ccc(Br)cc2)CC1`, -4.31%.

Consider `Cc1nsc(N2CCN(C(=O)Nc3cccc(C#N)c3)CC2)n1`, for which the cytotoxicity at 70.5 h was -0.0722%. Then `Cc1nc(-c2ccccc2)sc1CSCCC(N)=O`, with 12.1%; and `CC(=O)Nc1ccc(F)c(S(=O)(=O)NC(C)(C)C)c1`, with -6.2%. With `CCN1CCC2(CC1)CC(CC(=O)N(C)C)c1ccc(F)cc12` (centres undefined), the cytotoxicity at 70.5 h was 33.5%. For the molecule `CN1CCN(Cc2cn3c(n2)CN(Cc2ccncc2)CC3)CC1`, the cytotoxicity at 70.5 h is 14%. Then `O=C(Cc1ccsc1)N1C[C@H]2CCC[C@@]2(COCc2ccccn2)C1`, with 10.5%; and `COCc1cnc2n1CCN(C(=O)c1cn(C)c3ccccc13)C2C` (centres undefined), with -5.93%. For `O=C(CC1CC2(CCNCC2)c2ccccc21)NCC1CC1` (centres undefined), the cytotoxicity at 70.5 h worked out at 11.3%.

On to `Cn1cc(CNC2CCc3c(ccc(=O)n3C)C2)cn1` (centres undefined), for which the cytotoxicity at 70.5 h was -2.72%. With `CC(C)OC[C@H]1CCC[C@]12CN(C(=O)C1CCOCC1)CCO2`, the cytotoxicity at 70.5 h is -8.49%. Under `COC[C@@H]1CCC[C@@]12CN(C(=O)N1CCCC1)CCO2` stands -12.3%; under `CC(=O)NCc1nnn2c1CN(c1ncccn1)CCC2`, -7.48%.

Consider `O=C(C1CCOCC1)N1C[C@H]2CCC[C@@]2(COCc2ccccn2)C1`, for which the cytotoxicity at 70.5 h was -10.2%.

Regarding `Cc1ccc(CNC(=O)c2nc3c(n2C)CCN(c2ncccn2)C3)o1`, the cytotoxicity at 70.5 h is -1.28%.

Turning to `COc1nn(C)c2c1CCCN(C(=O)c1cscn1)C2`, the cytotoxicity at 70.5 h worked out at 2.23%. As to `COc1nn(C)c2c1CCCN(C(=O)c1cnccn1)C2`, the cytotoxicity at 70.5 h was determined as 1.47%. As for `COCC(=O)NCc1cc(=O)n2c(n1)CN(Cc1ccncc1)CCC2`, the cytotoxicity at 70.5 h was -0.67%. Under `O=C(C1CCOCC1)N1CC[C@H](O)[C@@H]1Cc1cccnc1` stands -0.0587%. With `CN1CCC2(CCN(C(=O)c3cccnc3)C2)C1` (centres undefined), the cytotoxicity at 70.5 h is 0.955%.

For `O=C(C1=CCCC1)N1C[C@@H]2COC[C@]2(COCc2ccncc2)C1`, the cytotoxicity at 70.5 h was -3.75%. In the case of `COCCNC(=O)[C@H]1CO[C@H]2CCN(Cc3cccs3)C[C@H]2C1`, the cytotoxicity at 70.5 h is -1.82%. Then `c1ccc(CO[C@@H]2CN(Cc3ccoc3)[C@@H]3COC[C@@H]32)nc1`, with 13%; and `O=C(c1ccncc1)N1CCC2(CC1)CCN(C(=O)c1cccnc1)C2`, with -7.65%.

For `CCO[C@H]1CC[C@H]2[C@@H]1OCCN2C(=O)COc1ccccc1`, the cytotoxicity at 70.5 h was found to be 27.1%. Under `CS(=O)(=O)NC[C@]12COC[C@H]1CN(C(=O)C1CC(F)(F)C1)C2` stands -2.39%; under `Cc1cnc(N2CCc3c(c(COc4cncnc4)nn3C)C2)nc1`, -6.03%; under `CN(Cc1cncnc1)[C@H]1CN(C(=O)c2ccco2)[C@@H]2CCCO[C@@H]21`, -10.9%.

As to `Cc1n[nH]c2ncc(CNC3CCN(Cc4ccccn4)CC3)cc12`, the cytotoxicity at 70.5 h is -6.34%. Under `c1cncc(COC[C@@H]2CCC[C@@]23CNCCO3)c1` stands 8.38%; under `CCOC1COC2(CCN(CC3CC3)CC2)C1` (centres undefined), 11.6%; under `Cc1cccc(CN2C[C@@H]3COC[C@]3(CNC(=O)C3CCC3)C2)c1`, -7.15%. Then `CS(=O)(=O)N1CCC2(CC1)CC(NCc1ccco1)c1ccccc12` (centres undefined), with -1.03%; and `CC(C)C(=O)NC1CC2(CCN(CC(=O)N(C)C)CC2)c2ccccc21` (centres undefined), with -2.53%; and `COCC(=O)NCc1cc(=O)n2c(n1)CN(C)CCC2`, with -3.22%.

On to `FC1(F)CCN(Cc2ccccn2)CC12CCN(c1ncccn1)C2` (centres undefined), for which the cytotoxicity at 70.5 h is -7.15%.

With `COc1nn(C)c2c1CCCN(C(=O)c1cccc(C)n1)C2`, the cytotoxicity at 70.5 h is -2.8%.

Turning to `CCC1=N[C@@]2(CC[C@@H]3CN(Cc4ccc(C)cc4)C[C@@H]32)C(=O)N1C`, the cytotoxicity at 70.5 h is -2.71%. Then `O=C(NCc1cccs1)[C@H]1CO[C@H]2CCN(C3CCCC3)C[C@H]2C1`, with 4.95%.

Take `Cn1cccc1C(=O)N1CC2(CCN(C(=O)c3cccnc3)C2)C1`: the cytotoxicity at 70.5 h is -7.36%.

In the case of `O=C(c1cc(C2CC2)on1)N1C[C@@H]2COC[C@]2(COc2cccnc2)C1`, the cytotoxicity at 70.5 h was -4%. With `CN1C[C@H](NC(=O)c2cscn2)[C@@H]2OCCC[C@@H]21`, the cytotoxicity at 70.5 h is -6.86%. Then `COCCN1CCC2(COCc3cnc(-c4ccccc4)nc32)C1` (centres undefined), with -8.87%. Then `Cn1nc(C(=O)N2CCOCC2)c2c1CN(CC1CC1)C2`, with -3.11%; and `CN(C)CCO[C@H]1CN(Cc2ccco2)[C@@H]2COC[C@H]12`, with -3.7%. Turning to `CN(C)C(=O)CN1CCC2(COCc3cnc(-c4cccnc4)nc32)C1` (centres undefined), the cytotoxicity at 70.5 h is -5.78%. Then `O=C1COC2(CCN(Cc3cccnc3)CC2)CN1c1ccccc1`, with -8.85%; and `Cc1cccc(CN2CCO[C@H]3[C@@H](OCc4ccncc4)CC[C@@H]32)n1`, with -7.09%.
